Source: paper PMC7932521, “2-aminobenzimidazoles for leishmaniasis: From initial hit discovery to in vivo profiling” (PLoS Neglected Tropical Diseases, 2021)

system: not listed separately; experiment: Experimental distribution coefficient (eLogD); format: physicochemical; conditions: experimental, pH 7.4
Method in brief: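 Lipophilicity derived from retention time on an Ascentis RP-Amide reverse-phase column by LC-MS/MS, compounds at 1.0 μg/mL with internal standard; mobile phases 5% methanol in 10mM ammonium acetate pH 7.4 and 100% methanol. LogD calculated from a linear calibration of eight standards' retention times against known LogD.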

| SMILES | eLogD |
| --- | --- |
| COc1ccc(C(=O)Nc2nc3ccc(C#N)cc3n2CC(F)(F)F)cn1 [Compound 43, O=C(c1ccc(OC)nc1)Nc2nc(ccc(C#N)c3)c3n2CC(F)(F)F] | 4.9 |
| N#Cc1ccc2nc(NC(=O)c3ccc(C(F)(F)F)nc3)n(CC(F)(F)F)c2c1 [Compound 45, O=C(c1ccc(C(F)(F)F)nc1)Nc2nc(ccc(C#N)c3)c3n2CC(F)(F)F] | 3.1 |

same assay, conditions: reverse stationary phase HPLC column (Ascentis RP-Amide), pH 7.4; S1 Data

| SMILES | chromatographic logD |
| --- | --- |
| COc1ccc(C(=O)Nc2nc3ccc(C#N)cc3n2CC(F)(F)F)cn1 [Compound 43, O=C(c1ccc(OC)nc1)Nc2nc(ccc(C#N)c3)c3n2CC(F)(F)F] | 4.85 |
| N#Cc1ccc2nc(NC(=O)c3ccc(C(F)(F)F)nc3)n(CC(F)(F)F)c2c1 [Compound 45, O=C(c1ccc(C(F)(F)F)nc1)Nc2nc(ccc(C#N)c3)c3n2CC(F)(F)F] | 3.1 |

biological target: T1, 5-HT2B (Homo sapiens, UniProt P41595); experiment: Bioprofiling 6pt Antag 5-HT2B CHO; format: cell-based; conditions: antagonist readout vs Serotonin (5-HT)
T1 construct: expressed in transfected cells; host or cells: CHO
Procedure: (§1) The compounds were evaluated across a panel of 20 liability targets (37 functional assays) which included functional cell-based GPCRs and ion channels in both agonist and antagonist readout, measuring calcium flux and biochemical functional assays for nuclear hormone receptors and phosphodiesterases using TR-FRET format, in a 6 point 1:3 dilution dose series (maximum final concentration of 10 μM).

T1 sequence (P41595 whole entry): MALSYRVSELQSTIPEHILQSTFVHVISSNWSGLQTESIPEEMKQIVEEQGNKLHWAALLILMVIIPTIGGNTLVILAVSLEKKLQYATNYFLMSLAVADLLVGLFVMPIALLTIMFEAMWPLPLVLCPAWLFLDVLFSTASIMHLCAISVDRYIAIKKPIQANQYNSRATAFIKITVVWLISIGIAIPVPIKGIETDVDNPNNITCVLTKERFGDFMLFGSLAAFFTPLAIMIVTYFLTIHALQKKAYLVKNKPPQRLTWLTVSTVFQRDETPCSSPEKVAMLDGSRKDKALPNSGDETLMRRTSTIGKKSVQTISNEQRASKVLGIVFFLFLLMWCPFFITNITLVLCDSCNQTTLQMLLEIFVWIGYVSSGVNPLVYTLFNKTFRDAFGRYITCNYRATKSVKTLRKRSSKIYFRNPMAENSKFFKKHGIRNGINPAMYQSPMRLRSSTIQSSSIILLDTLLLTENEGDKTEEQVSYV

| SMILES | IC50 [µM] |
| --- | --- |
| COc1ccc(C(=O)Nc2nc3ccc(C#N)cc3n2CC(F)(F)F)cn1 [Compound 43, O=C(c1ccc(OC)nc1)Nc2nc(ccc(C#N)c3)c3n2CC(F)(F)F] | > 10 |
| N#Cc1ccc2nc(NC(=O)c3ccc(C(F)(F)F)nc3)n(CC(F)(F)F)c2c1 [Compound 45, O=C(c1ccc(C(F)(F)F)nc1)Nc2nc(ccc(C#N)c3)c3n2CC(F)(F)F] | > 10 |

system: not listed separately; experiment: HEPG2 cytotoxicity; format: cell-based; conditions: human, HepG2 cells; S1 Data
Description: Supplement pntd.0009196.s001.xlsx, sheet "Complete Dataset" | column: HEPG2 CC50 (uM)

| SMILES | CC50 [nM] |
| --- | --- |
| COc1ccc(C(=O)Nc2nc3ccc(C#N)cc3n2CC(F)(F)F)cn1 [Compound 43, O=C(c1ccc(OC)nc1)Nc2nc(ccc(C#N)c3)c3n2CC(F)(F)F] | 2600 |
| N#Cc1ccc2nc(NC(=O)c3ccc(C(F)(F)F)nc3)n(CC(F)(F)F)c2c1 [Compound 45, O=C(c1ccc(C(F)(F)F)nc1)Nc2nc(ccc(C#N)c3)c3n2CC(F)(F)F] | 1120 |

system: not listed separately; experiment: Plasma stability; format: in vitro ADME, mouse; conditions: S1 Data
Procedure: Pooled plasma was thawed in a water bath at 37°C and centrifuged at 4,000 rpm for 5 min to remove any clots. Plasma solution was prepared by adding PBS (pH 7.4) in a 1:1 ratio. It was not necessary to adjust the pH of the final plasma solution. Plasma:PBS and test compound solutions were added to the incubation plate at a final concentration of 2 μM. The plate was incubated in a shaker at 37°C and 50 rpm. Samples were removed (25 μL) from each well of the incubation plate at multiple timepoints and added to a plate containing 100 μL of quench solution (200 ng/mL tolbutamide in 50% acetonitrile/methanol) to precipitate protein. The quenched aliquots were centrifuged at 4000 rpm for 10 min at 5°C. An aliquot of supernatant was transferred from each well to a plate for analysis by LC-MS/MS. Results were calculated as the percentage of remaining parent compound in plasma after incubation.

| SMILES | Plasma Stability [%] |
| --- | --- |
| COc1ccc(C(=O)Nc2nc3ccc(C#N)cc3n2CC(F)(F)F)cn1 [Compound 43, O=C(c1ccc(OC)nc1)Nc2nc(ccc(C#N)c3)c3n2CC(F)(F)F] | 92.20 |
| N#Cc1ccc2nc(NC(=O)c3ccc(C(F)(F)F)nc3)n(CC(F)(F)F)c2c1 [Compound 45, O=C(c1ccc(C(F)(F)F)nc1)Nc2nc(ccc(C#N)c3)c3n2CC(F)(F)F] | 135 |

biological target: T2, CB1 (Homo sapiens, UniProt P21554); experiment: Bioprofiling 6pt Antag CB1 CHO; format: cell-based; conditions: antagonist readout vs WIN 55,212-2
T2 construct: expressed in transfected cells; host or cells: CHO
Procedure: as §1

T2 sequence (P21554 whole entry): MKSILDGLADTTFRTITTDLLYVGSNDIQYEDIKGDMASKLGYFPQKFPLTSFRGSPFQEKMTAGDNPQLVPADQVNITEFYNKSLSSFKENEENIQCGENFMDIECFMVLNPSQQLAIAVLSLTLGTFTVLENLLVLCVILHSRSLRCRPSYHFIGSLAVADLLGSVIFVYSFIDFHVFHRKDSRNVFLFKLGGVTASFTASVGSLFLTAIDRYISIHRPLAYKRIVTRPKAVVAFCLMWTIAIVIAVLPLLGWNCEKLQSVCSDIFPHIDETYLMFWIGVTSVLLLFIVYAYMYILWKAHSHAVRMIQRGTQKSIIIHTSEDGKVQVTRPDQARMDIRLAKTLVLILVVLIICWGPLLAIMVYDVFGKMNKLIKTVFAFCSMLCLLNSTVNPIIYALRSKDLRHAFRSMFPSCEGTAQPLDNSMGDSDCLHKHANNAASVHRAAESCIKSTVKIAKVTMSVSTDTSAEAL

| SMILES | IC50 [µM] |
| --- | --- |
| COc1ccc(C(=O)Nc2nc3ccc(C#N)cc3n2CC(F)(F)F)cn1 [Compound 43, O=C(c1ccc(OC)nc1)Nc2nc(ccc(C#N)c3)c3n2CC(F)(F)F] | > 10 |
| N#Cc1ccc2nc(NC(=O)c3ccc(C(F)(F)F)nc3)n(CC(F)(F)F)c2c1 [Compound 45, O=C(c1ccc(C(F)(F)F)nc1)Nc2nc(ccc(C#N)c3)c3n2CC(F)(F)F] | > 10 |

biological target: T3, H1 (Homo sapiens, UniProt P35367); experiment: Bioprofiling 6pt Antag H1 CHO; format: cell-based; conditions: antagonist readout vs Histamine
T3 construct: expressed in transfected cells; host or cells: CHO
Procedure: as §1

T3 sequence (P35367 whole entry): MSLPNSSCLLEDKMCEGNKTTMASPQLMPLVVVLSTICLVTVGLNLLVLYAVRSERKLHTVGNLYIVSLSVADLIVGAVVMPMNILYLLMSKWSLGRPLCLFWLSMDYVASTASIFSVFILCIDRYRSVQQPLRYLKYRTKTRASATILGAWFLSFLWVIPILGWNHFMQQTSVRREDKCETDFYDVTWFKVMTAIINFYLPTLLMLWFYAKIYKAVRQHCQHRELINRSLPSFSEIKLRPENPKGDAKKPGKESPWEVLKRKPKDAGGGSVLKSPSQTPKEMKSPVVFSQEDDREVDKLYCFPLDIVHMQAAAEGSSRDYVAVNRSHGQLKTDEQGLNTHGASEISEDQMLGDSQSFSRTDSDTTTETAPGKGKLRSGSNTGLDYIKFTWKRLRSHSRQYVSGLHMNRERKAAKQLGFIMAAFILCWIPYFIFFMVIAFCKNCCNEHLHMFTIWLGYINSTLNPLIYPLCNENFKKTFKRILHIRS

| SMILES | IC50 [µM] |
| --- | --- |
| COc1ccc(C(=O)Nc2nc3ccc(C#N)cc3n2CC(F)(F)F)cn1 [Compound 43, O=C(c1ccc(OC)nc1)Nc2nc(ccc(C#N)c3)c3n2CC(F)(F)F] | > 10 |
| N#Cc1ccc2nc(NC(=O)c3ccc(C(F)(F)F)nc3)n(CC(F)(F)F)c2c1 [Compound 45, O=C(c1ccc(C(F)(F)F)nc1)Nc2nc(ccc(C#N)c3)c3n2CC(F)(F)F] | > 10 |

biological target: T4, 5-HT1A (Homo sapiens, UniProt P08908); experiment: Bioprofiling 6pt Ag 5-HT1A CHO; format: cell-based; conditions: agonist readout
T4 construct: expressed in transfected cells; host or cells: CHO
T4 sequence (P08908 1-422): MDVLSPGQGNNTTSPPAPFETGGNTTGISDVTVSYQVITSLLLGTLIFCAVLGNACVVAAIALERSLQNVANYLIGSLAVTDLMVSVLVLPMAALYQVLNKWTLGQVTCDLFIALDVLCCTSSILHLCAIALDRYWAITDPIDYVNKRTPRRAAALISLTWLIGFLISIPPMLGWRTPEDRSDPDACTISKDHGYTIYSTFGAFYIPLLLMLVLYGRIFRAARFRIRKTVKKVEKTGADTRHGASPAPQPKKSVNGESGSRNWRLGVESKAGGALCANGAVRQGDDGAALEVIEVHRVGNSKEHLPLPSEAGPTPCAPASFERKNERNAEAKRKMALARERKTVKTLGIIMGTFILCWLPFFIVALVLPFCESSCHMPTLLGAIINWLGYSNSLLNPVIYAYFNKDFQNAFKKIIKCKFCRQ
Procedure: as §1

| SMILES | EC50 [µM] |
| --- | --- |
| COc1ccc(C(=O)Nc2nc3ccc(C#N)cc3n2CC(F)(F)F)cn1 [Compound 43, O=C(c1ccc(OC)nc1)Nc2nc(ccc(C#N)c3)c3n2CC(F)(F)F] | > 10 |
| N#Cc1ccc2nc(NC(=O)c3ccc(C(F)(F)F)nc3)n(CC(F)(F)F)c2c1 [Compound 45, O=C(c1ccc(C(F)(F)F)nc1)Nc2nc(ccc(C#N)c3)c3n2CC(F)(F)F] | > 10 |

biological target: T5, ETA (Homo sapiens, UniProt P25101); experiment: Bioprofiling 6pt Antag ETA CHO; format: cell-based; conditions: antagonist readout vs Endothelin-1 (ET-1)
T5 construct: expressed in transfected cells; host or cells: CHO
T5 sequence (P25101 21-427): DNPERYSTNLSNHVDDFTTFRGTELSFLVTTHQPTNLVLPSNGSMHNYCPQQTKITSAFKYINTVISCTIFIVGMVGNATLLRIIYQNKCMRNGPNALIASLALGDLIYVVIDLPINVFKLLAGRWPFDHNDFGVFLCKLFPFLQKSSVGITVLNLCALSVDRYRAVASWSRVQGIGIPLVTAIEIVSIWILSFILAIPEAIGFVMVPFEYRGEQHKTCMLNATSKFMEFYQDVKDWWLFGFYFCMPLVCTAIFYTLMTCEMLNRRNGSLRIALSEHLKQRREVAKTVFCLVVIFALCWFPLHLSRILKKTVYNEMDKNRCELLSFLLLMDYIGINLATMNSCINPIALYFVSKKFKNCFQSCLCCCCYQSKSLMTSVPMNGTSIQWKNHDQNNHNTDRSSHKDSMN
Procedure: as §1

| SMILES | IC50 [µM] |
| --- | --- |
| COc1ccc(C(=O)Nc2nc3ccc(C#N)cc3n2CC(F)(F)F)cn1 [Compound 43, O=C(c1ccc(OC)nc1)Nc2nc(ccc(C#N)c3)c3n2CC(F)(F)F] | > 10 |
| N#Cc1ccc2nc(NC(=O)c3ccc(C(F)(F)F)nc3)n(CC(F)(F)F)c2c1 [Compound 45, O=C(c1ccc(C(F)(F)F)nc1)Nc2nc(ccc(C#N)c3)c3n2CC(F)(F)F] | > 10 |

biological target: T6, A1 (Homo sapiens, UniProt P30542); experiment: Bioprofiling 6pt Ag A1 CHO; format: cell-based; conditions: agonist readout
T6 construct: expressed in transfected cells; host or cells: CHO
T6 sequence (P30542 1-326): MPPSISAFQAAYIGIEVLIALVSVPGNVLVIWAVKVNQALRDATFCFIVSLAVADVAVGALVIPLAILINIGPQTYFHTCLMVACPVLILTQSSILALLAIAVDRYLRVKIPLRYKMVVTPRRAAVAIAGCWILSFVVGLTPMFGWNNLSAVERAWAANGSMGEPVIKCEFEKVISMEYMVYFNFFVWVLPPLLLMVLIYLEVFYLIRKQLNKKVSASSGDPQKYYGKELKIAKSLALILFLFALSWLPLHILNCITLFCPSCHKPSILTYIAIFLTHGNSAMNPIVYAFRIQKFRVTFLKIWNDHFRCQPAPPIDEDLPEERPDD
Procedure: as §1

| SMILES | EC50 [µM] |
| --- | --- |
| COc1ccc(C(=O)Nc2nc3ccc(C#N)cc3n2CC(F)(F)F)cn1 [Compound 43, O=C(c1ccc(OC)nc1)Nc2nc(ccc(C#N)c3)c3n2CC(F)(F)F] | > 10 |
| N#Cc1ccc2nc(NC(=O)c3ccc(C(F)(F)F)nc3)n(CC(F)(F)F)c2c1 [Compound 45, O=C(c1ccc(C(F)(F)F)nc1)Nc2nc(ccc(C#N)c3)c3n2CC(F)(F)F] | > 10 |

biological target: T1, 5-HT2B; experiment: Bioprofiling 6pt Ag 5-HT2B CHO; format: cell-based; conditions: agonist readout
Procedure: as §1

| SMILES | EC50 [µM] |
| --- | --- |
| COc1ccc(C(=O)Nc2nc3ccc(C#N)cc3n2CC(F)(F)F)cn1 [Compound 43, O=C(c1ccc(OC)nc1)Nc2nc(ccc(C#N)c3)c3n2CC(F)(F)F] | > 10 |
| N#Cc1ccc2nc(NC(=O)c3ccc(C(F)(F)F)nc3)n(CC(F)(F)F)c2c1 [Compound 45, O=C(c1ccc(C(F)(F)F)nc1)Nc2nc(ccc(C#N)c3)c3n2CC(F)(F)F] | > 10 |

biological target: T7, ETB (Homo sapiens, UniProt P24530); experiment: Bioprofiling 6pt Antag ETB CHO; format: cell-based; conditions: antagonist readout vs BQ-3020
T7 construct: expressed in transfected cells; host or cells: CHO
T7 sequence (P24530 27-442): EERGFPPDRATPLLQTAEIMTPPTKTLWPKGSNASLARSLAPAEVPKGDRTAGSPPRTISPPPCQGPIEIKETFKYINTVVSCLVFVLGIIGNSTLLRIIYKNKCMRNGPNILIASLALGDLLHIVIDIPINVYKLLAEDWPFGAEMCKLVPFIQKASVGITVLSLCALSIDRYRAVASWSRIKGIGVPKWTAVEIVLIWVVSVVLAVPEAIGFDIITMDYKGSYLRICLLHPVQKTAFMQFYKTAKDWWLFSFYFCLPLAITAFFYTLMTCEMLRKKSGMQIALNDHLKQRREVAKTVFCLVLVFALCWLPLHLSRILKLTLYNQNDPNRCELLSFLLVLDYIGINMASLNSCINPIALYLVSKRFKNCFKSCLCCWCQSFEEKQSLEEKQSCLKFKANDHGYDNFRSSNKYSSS
Procedure: as §1

| SMILES | IC50 [µM] |
| --- | --- |
| COc1ccc(C(=O)Nc2nc3ccc(C#N)cc3n2CC(F)(F)F)cn1 [Compound 43, O=C(c1ccc(OC)nc1)Nc2nc(ccc(C#N)c3)c3n2CC(F)(F)F] | > 10 |
| N#Cc1ccc2nc(NC(=O)c3ccc(C(F)(F)F)nc3)n(CC(F)(F)F)c2c1 [Compound 45, O=C(c1ccc(C(F)(F)F)nc1)Nc2nc(ccc(C#N)c3)c3n2CC(F)(F)F] | > 10 |
